# Laboratory results taken from patent US5977144A (priority 1997, dated 1999).
# Entries after “also recorded” stand apart in the source; their conditions may differ. Read-outs that look alike come from different tables or passages of the source.
# How the values were obtained:
# rat alpha7 receptor [1] = target: T1, rat alpha7 receptor (Rattus norvegicus, UniProt Q05941); assay: cell-based
# Protocol: FIG. 13A. Effects of chronic injections of DMXB or nicotine on high affinity [^3 H]ACh or [^125 I]α-bungarotoxin (BTX) binding in rat neocortices. Adult male rats were injected with saline vehicle, 1 mg/kg DMXB or 0.2 mg/kg nicotine (NIC) (IP) daily for 2 weeks. At that time, neocortices were removed and assayed for high affinity [^3 H]ACh or [^125 I]α-bungarotoxin binding as described in the text. […] Responses of rat α7 ACHR to 3-CA, 2-MeOCA and 4-MeOCA. Concentration-response relationships for the peak agonist activated currents of oocytes injected with RNA coding for the rat α7 subunit. All responses were initially measured relative to the individual oocyte-response to 500 μM ACh, applied 5 min prior to drug-application. Responses were normalized relative to the maximum response obtainable with ACh so that a response of 1 represents full efficacy. The ratio of 500 μM ACh control response to ACh maximum was taken from Papke et al., 1997.
# (§1) Oocytes were prepared and recordings made as described previously (de Fiebre, et al., 1995). Frogs were anesthetized by submersion in 0.1% (3)-aminobenzoic acid ethyl ester and several lobes of the ovary surgically removed through a small incision in the abdomen wall. Oocytes were freed from the follicle cells by treatment with collagenase (in calcium-free Barth's solution: 88 mM NaCl, 1 mM KCl, 15 mM Hepes pH 7.6, 0.33 mM MgSO4, 0.1 mg/ml gentamicin sulfate) for 2 hr at room temperature and Stage 5 oocytes were isolated. Oocytes were rinsed and stored at 18° C. in Barth's saline (88 mM NaCl, 1 mM KCl, 15 mM Hepes pH 7.6, 0.3 mM Ca(NO3)2, 0.41 mM CaCl2, 0.82 mM MgSO4, 0.1 mg/ml gentamicin sulfate) before and after microinjection with RNA. Microinjection was conducted with a Drummond Scientific "Nanoject Variable" automatic injector. Oocytes were injected with a 50 nl solution of specified rat nicotinic subunit mRNA species (2-10 mg/ml; derived from the cDNA containing HIP 306 plasmid kindly provided by Dr. Jim Boulter, Salk Institute) and incubated 2-7 days at 18° C. before electrophysiological recording. electrophysiological recordings, oocytes were perfused in a Warner Instruments RC-8 recording chamber with a perfusion solution containing 115 mM NaCl, 2.5 mM KCl, 10 mM Hepes pH 7.2, 1.8 mM CaCl2 and 1 μM atropine to block muscarinic responses. Perfusion was continuous at a rate of 10 ml/min. Drags were diluted in perfusion solution and applied using a solenoid valve to switch from perfusion to drug solutions. Current responses to drug administration were studied under two electrode voltage clamp at a holding potential of -70 mV using a Dagan Corp. TEV-200 voltage clamp connected to a 386-SX IBM computer using a TL-1 DMA interface (Axon Instruments). Micropipettes were filled with 3 M KCl and had resistances of 0.5-2 MOhms. Drug responses are analyzed with PClamp software (Axon Instruments). Oocytes with resting potentials of less than -30 mV were rejected.
# rat alpha4beta2 receptor = rat alpha4beta2 receptor (Rattus norvegicus, UniProt P09483+P12390); assay: Activation of alpha4beta2 receptors expressed in Xenopus oocytes; assay type: cell-based
# Sequence of rat alpha4beta2 receptor (P09483 31-630): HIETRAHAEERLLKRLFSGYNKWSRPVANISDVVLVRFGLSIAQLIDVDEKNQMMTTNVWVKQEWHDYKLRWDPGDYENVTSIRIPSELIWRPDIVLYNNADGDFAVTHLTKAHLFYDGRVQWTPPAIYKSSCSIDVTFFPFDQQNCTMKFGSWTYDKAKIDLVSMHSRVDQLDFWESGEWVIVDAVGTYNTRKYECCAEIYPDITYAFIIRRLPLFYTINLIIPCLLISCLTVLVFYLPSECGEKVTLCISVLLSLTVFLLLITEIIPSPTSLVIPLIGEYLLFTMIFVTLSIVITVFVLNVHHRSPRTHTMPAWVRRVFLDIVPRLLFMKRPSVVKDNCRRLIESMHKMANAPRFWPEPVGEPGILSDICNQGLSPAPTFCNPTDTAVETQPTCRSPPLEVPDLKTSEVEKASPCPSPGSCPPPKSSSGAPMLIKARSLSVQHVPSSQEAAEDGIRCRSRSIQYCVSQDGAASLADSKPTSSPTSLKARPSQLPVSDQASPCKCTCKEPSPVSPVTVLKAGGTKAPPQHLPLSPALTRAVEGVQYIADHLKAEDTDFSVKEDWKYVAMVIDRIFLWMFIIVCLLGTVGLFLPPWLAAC
# Sequence of rat alpha4beta2 receptor (P12390 25-500): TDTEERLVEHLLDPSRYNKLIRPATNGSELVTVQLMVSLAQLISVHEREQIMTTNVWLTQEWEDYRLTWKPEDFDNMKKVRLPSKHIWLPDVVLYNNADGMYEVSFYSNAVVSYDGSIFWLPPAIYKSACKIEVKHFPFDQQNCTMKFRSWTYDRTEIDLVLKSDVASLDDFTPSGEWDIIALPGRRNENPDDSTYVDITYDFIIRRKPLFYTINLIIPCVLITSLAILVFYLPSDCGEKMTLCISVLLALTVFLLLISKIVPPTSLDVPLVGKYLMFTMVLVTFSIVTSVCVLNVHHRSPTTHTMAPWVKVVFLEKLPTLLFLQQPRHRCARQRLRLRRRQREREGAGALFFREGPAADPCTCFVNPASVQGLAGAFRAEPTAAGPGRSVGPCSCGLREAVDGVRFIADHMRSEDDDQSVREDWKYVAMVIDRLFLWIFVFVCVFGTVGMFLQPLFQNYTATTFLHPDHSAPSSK
# Protocol: FIG. 14A. Responses of α4β2 ACHR to 3-CA, 2-MeOCA or 4-MeOCA. Concentration-response relationships for the peak agonist activated currents of oocytes injected with RNA coding for rat α4β2 subunits. Responses are first expressed relative to the response to 10 μM ACh, applied 5 min before drug-application, then normalized to the maximum response obtainable with ACh so that a response of 1 represents full efficacy. The ratio between 10 μM ACh and maximum ACh response was determined in separate experiments.
# as §1
# [2] = target: alpha7 receptor (high affinity alpha-bungarotoxin binding, rat brain membranes) (Rattus norvegicus, UniProt Q05941); assay: biochemical
# Sequence of alpha7 receptor (high affinity alpha-bungarotoxin binding, rat brain membranes) (Q05941 23-502): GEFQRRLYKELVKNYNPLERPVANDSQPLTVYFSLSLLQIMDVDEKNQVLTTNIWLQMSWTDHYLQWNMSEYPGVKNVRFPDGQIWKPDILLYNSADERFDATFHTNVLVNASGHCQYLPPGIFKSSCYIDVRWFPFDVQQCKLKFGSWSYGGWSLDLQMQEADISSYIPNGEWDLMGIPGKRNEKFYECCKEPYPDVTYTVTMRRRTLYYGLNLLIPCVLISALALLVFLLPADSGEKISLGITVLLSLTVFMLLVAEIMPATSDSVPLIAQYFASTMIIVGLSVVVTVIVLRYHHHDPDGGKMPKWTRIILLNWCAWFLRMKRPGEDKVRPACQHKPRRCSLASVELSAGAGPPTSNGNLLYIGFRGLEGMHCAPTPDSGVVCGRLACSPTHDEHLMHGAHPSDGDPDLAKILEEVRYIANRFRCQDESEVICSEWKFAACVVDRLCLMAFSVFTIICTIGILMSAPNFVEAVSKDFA
# rat alpha7 receptor [3] = target: T1, rat alpha7 receptor; assay: cell-based; design: Oocytes Antagonist: unit not given here; settings: for Oocytes Antagonist: Table 4
# Protocol: FIG. 13B. Effects of chronic injections of DMXB or nicotine on high affinity [^3 H]ACh or [^125 I]α-bungarotoxin (BTX) binding in rat neocortices. Adult male rats were injected with saline vehicle, 1 mg/kg DMXB or 0.2 mg/kg nicotine (NIC) (IP) daily for 2 weeks. At that time, neocortices were removed and assayed for high affinity [^3 H]ACh or [^125 I]α-bungarotoxin binding as described in the text. […] Responses of rat α7 AChR to 3-CA, 2-MeOCA and 4-MeOCA. […] All responses are expressed relative to the oocyte-response to 500 μM ACh applied 5 min prior to the experimental agonist application.
# as §1
# Antagonist properties subsequent to agonist activity were measured as a decrease in responsiveness to ACh applied 5 min after compound-application, normalized to ACh application instead of the anabaseine-derivative (FIG. 13A AND FIG. 13B).
# rat alpha7 receptor [4] = target: T1, rat alpha7 receptor; settings: cited from earlier work
# rat = settings: in vivo
# Protocol: Eleven male Sprague-Dawley rats were first trained to press the left lever in a two lever operant conditioning chamber. They had limited access to food for 23 hours prior to the first training session and then received 20 grams of food for the remainder of the study. Once subjects reliably pressed the left lever, a catheter was surgically implanted into the right jugular vein. The catheter consisted of three separate pieces of tubing, a 37 mm length of silicon rubber tubing which entered the circulatory system (Silastic Medical Grade tubing), a 65 mm length of polyethylene tubing (Intramedic, PE10) and a 170 mm length of polyethylene tubing with the same internal diameter (Intramedic, PE20). The catheter exited between the scapulae and could be hooked up to a swivel which itself was connected to a pneumatic syringe. […] Once subjects had recovered from surgery they were trained to complete a fixed ratio 2 schedule (FR 2) to activate the pneumatic syringe. […] Each daily experimental session lasted 50 minutes. After several sessions under these conditions, subjects received an intraperitoneal (IP) injection of physiological saline (1 ml/kg), 15 min prior to the start of the self-administration session. The next day subjects were IP injected with 8 mg/kg of GTS-21, also 15 minutes before the beginning of the session.
# [5] = system: rat primary neocortical neurons; assay type: cell-based
# PC12 cells = settings: Martin et al., 1994, cited from earlier work
# [6] = Table 4, read-out: Oocytes Agonist α7
# [7] = Table 4, read-out: Oocytes Agonist α4
# [8] = Table 4, read-out: Receptor Binding α7
# T1 sequence (Q05941 23-502): as above
structure (smiles),measurement,setting,value
"COc1ccccc1/C=C/C=C1\CCCN=C1c1cccnc1 [2-MeOCA, E,E-3-(2-Methoxycinnamylidene)anabaseine]",selectivity α7 over α4β2 (in words),rat alpha7 receptor [1],selectively activate α7 receptors over α4β2
same,Emax,rat alpha7 receptor [1]; [6],96%
same,α7 receptor activation (in words),rat alpha7 receptor [1]; oocyte expression system,fully efficaciously
same,EC50,"rat alpha7 receptor [1]; oocytes, read-out: α7 EC50",6.2 ± 2.2 µM
same,Emax,rat alpha7 receptor [1]; read-out: alpha7 activation: % response observed with 500 μM acetylcholine,96%
same,Emax,rat alpha4beta2 receptor; [7],2.2%
same,inhibition at 1 µM,"[2]; 1 μM (Table 2), read-out: alpha7 binding: % inhibition of alphabungarotoxin binding",94.9%
same,inhibition at 1 µM,[2]; [8],94.9%
same,IC50,"[2]; rat brain membranes, read-out: IC50, [125I]α-bungarotoxin binding",0.008 µM
same,"inhibition of α7 receptors, estimated","rat alpha7 receptor [3]; 10 μM, estimated from oocyte results",over 90%
same,inhibition at 10 µM,"rat alpha7 receptor [3]; 10 μM, ACh application 5 min later, read-out: long term inhibition of α7 receptors",90%
same,IC50,"rat alpha7 receptor [3]; ACh applied 5 min after compound, read-out: IC50, antagonism subsequent to agonist activity",2.3 ± 0.7 µM
same,Oocytes Antagonist,rat alpha7 receptor [3],.08
"COc1ccc(/C=C2\CCCN=C2c2cccnc2)c(OC)c1 [DMXB, 3-(2,4-Dimethoxybenzylidene) anabaseine]",α7 agonist activity (in words),rat alpha7 receptor [4]; background/literature,weak partial agonist activity
same,selectivity α7 over α4β2 / other nicotinic subtypes (in words),rat alpha7 receptor [4]; literature,selective as an agonist for α7 versus other nicotinic receptor subtypes
same,activity of ACh at α7 receptors,rat alpha7 receptor [4]; partial agonist,about 20%
same,nicotine self-administration (in words),rat,inhibits nicotine self-administration; also recorded: less likely to self-administer nicotine
same,Emax,rat alpha7 receptor [1]; [6],20%
same,Emax,"rat alpha7 receptor [1]; read-out: alpha7 activation: response, normalized to 500 μM acetylcholine (maximum response)",20%
same,Emax,rat alpha4beta2 receptor; [7],< 1%
same,Emax,rat alpha4beta2 receptor; read-out: alpha4beta2 activation: response compared to maximal acetylcholine,< 1%
same,"protection against glutamate, concomitant (in words)","[5]; 10 μM, with 1 mM glutamate",not observed when administered concomitantly with glutamate
same,protection against NMDA receptor-mediated toxicity (in words),[5]; 24 hr prior to glutamate or NMDA,protects rat primary neocortical neurons against NMDA-receptor mediated excitotoxicity; also recorded: protected against NMDA receptor-mediated toxicity
same,effect on kainate-induced neurotoxicity (in words),[5]; kainate,no effect
same,inhibition at 1 µM,[2]; [8],52%
same,inhibition at 1 µM,"[2]; concentration of 1 μM (Table 1), read-out: alpha7 binding: % Inhibition of high affinity alphabungarotoxin binding (1 nM)",52%
same,Oocytes Antagonist,rat alpha7 receptor [3],.20
same,activity against trophic factor deprivation in PC12 cells (in words),PC12 cells; listed as GTS 21,sufficient to reduce this neurotoxicity
same,activity against trophic factor deprivation in PC12 cells (in words),PC12 cells; listed as GTS-21,neuroprotective activity
